The test deals with P388 leukemia ip, CD2F1 mice, survival T/C. The test is described as follows: NCI In Vivo Anticancer Drug Screen. Data for tumor model P388 Leukemia (intraperitoneal) in CD2F1 (CDF1) mice. The settings on record: endpoint: median survival time, higher = longer survival. Summed up: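 Mice carrying the transplanted tumor received test compound or vehicle. Survival was recorded in each group, and the value is the treated-group measurement divided by that of the vehicle-treated control group.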

[1] abbreviates: dose: 100.0 mg/kg/injection, schedule: Q04DX002 (ip), vehicle: saline with Tween-80.
Setting [2] is: dose: 200.0 mg/kg/injection, schedule: Q04DX002 (ip), vehicle: saline with Tween-80.
[3] abbreviates: dose: 50.0 mg/kg/injection, schedule: Q01DX005 (ip), vehicle: saline with Tween-80.
[4] abbreviates: dose: 100.0 mg/kg/injection, schedule: Q01DX005 (ip), vehicle: saline with Tween-80.
Setting [5] is: dose: 200.0 mg/kg/injection, schedule: Q01DX005 (ip), vehicle: saline with Tween-80.
The mark [6] stands for this setting: dose: 60.0 mg/kg/injection, schedule: Q01DX005 (ip), vehicle: saline with Tween-80.
Where [7] appears, read: dose: 120.0 mg/kg/injection, schedule: Q01DX005 (ip), vehicle: saline with Tween-80.
The mark [8] stands for this setting: dose: 240.0 mg/kg/injection, schedule: Q01DX005 (ip), vehicle: saline with Tween-80.
Where [9] appears, read: dose: 50.0 mg/kg/injection, schedule: Q01DX009 (ip), vehicle: saline.
The mark [10] stands for this setting: dose: 100.0 mg/kg/injection, schedule: Q01DX009 (ip), vehicle: saline.
Setting [11] is: dose: 200.0 mg/kg/injection, schedule: Q01DX009 (ip), vehicle: saline.
[12] abbreviates: dose: 50.0 mg/kg/injection, schedule: Q01DX009 (ip), vehicle: saline with Tween-80.

Several values for one entry are separate records, joined by “and”; a condition that tells them apart may be missing. Equal entries are not always repeated. Toxic doses and inconclusive results are not listed.

Consider `CC([NH-])C(C)[NH-].[Cl][Pt+2][Cl]` (stereo not given), for which the T/C runs as follows: (dose: 3.12 mg/kg/injection, schedule: Q01DX001 (ip), vehicle: Klucel (hydroxypropylcellulose) (HPC)) 119 % of control; (dose: 12.5 mg/kg/injection, schedule: Q01DX001 (ip), vehicle: Klucel (hydroxypropylcellulose) (HPC)) 153 % of control and 154 % of control; (dose: 25.0 mg/kg/injection, schedule: Q01DX001 (ip), vehicle: Klucel (hydroxypropylcellulose) (HPC)) 184 % of control.

Take `Cn1cnc([N+](=O)[O-])c1Sc1ccc(Cl)cc1`: the T/C reads like this: (dose: 0.79 mg/kg/injection, schedule: Q01DX009 (ip), vehicle: saline with Tween-80) 104 % of control; (dose: 1.56 mg/kg/injection, schedule: Q01DX009 (ip), vehicle: saline with Tween-80) 104 % of control; (dose: 3.12 mg/kg/injection, schedule: Q01DX009 (ip), vehicle: saline with Tween-80) 97 % of control.

Turning to `NC(CCSCNc1ncnc2c1ncn2C1OC(CO)C(O)C1O)C(=O)O` (stereo not given), the T/C is 97 % of control under setting [1]; 93 % of control under setting [2]; 93 % of control (dose: 400.0 mg/kg/injection, schedule: Q04DX002 (ip), vehicle: saline with Tween-80).

Turning to `c1ccc(CN=C(Nc2ccc(C3=NCCN3)cc2)c2cccc(C(=NCc3ccccc3)Nc3ccc(C4=NCCN4)cc3)c2)cc1`, the T/C runs as follows: under setting [3], 104 % of control; under setting [4], 104 % of control; under setting [5], 104 % of control.

On to `COc1ccc2cc3[nH]c(=O)cc(O)c3cc2c1OC`, for which the T/C runs as follows: (dose: 12.5 mg/kg/injection, schedule: Q01DX009 (ip), vehicle: other) 96 % of control; (dose: 25.0 mg/kg/injection, schedule: Q01DX009 (ip), vehicle: other) 106 % of control; (dose: 50.0 mg/kg/injection, schedule: Q01DX009 (ip), vehicle: other) 101 % of control; (dose: 100.0 mg/kg/injection, schedule: Q01DX009 (ip), vehicle: other) 89 % of control; (dose: 200.0 mg/kg/injection, schedule: Q01DX009 (ip), vehicle: other) 89 % of control.

Consider `O=C1c2c(Cl)c(Cl)c(Cl)c(Cl)c2C(=O)N1c1ccccc1-c1ccccc1`, for which the T/C was 97 % of control (dose: 87.5 mg/kg/injection, schedule: Q01DX009 (ip), vehicle: saline with Tween-80); 97 % of control (dose: 175.0 mg/kg/injection, schedule: Q01DX009 (ip), vehicle: saline with Tween-80); 97 % of control (dose: 350.0 mg/kg/injection, schedule: Q01DX009 (ip), vehicle: saline with Tween-80).

Consider `CC(C)(Cl)C1ON1C(C)(C)C` (stereo not given), for which the T/C reads like this: under setting [6], 107 % of control; under setting [7], 107 % of control; under setting [8], 108 % of control.

Consider `CCOC(=O)N1C(=O)C2C3C=CC(C2C1=O)C1C2C(=O)N(C(=O)OCC)C(=O)C2C31` (stereo not given), for which the T/C by setting is: (dose: 25.0 mg/kg/injection, schedule: Q01DX009 (ip), vehicle: Klucel (hydroxypropylcellulose) (HPC)) 116 % of control and 124 % of control; (dose: 50.0 mg/kg/injection, schedule: Q01DX009 (ip), vehicle: Klucel (hydroxypropylcellulose) (HPC)) 121 % of control; (dose: 100.0 mg/kg/injection, schedule: Q01DX009 (ip), vehicle: Klucel (hydroxypropylcellulose) (HPC)) 152 % of control.

Turning to `CNc1nc(N)nc(N)c1N1CCN(c2ccc(C(=O)O)cc2)CC1`, the T/C is 91 % of control (dose: 60.0 mg/kg/injection, schedule: Q01DX005 (ip), vehicle: Klucel (hydroxypropylcellulose) (HPC)); 93 % of control (dose: 120.0 mg/kg/injection, schedule: Q01DX005 (ip), vehicle: Klucel (hydroxypropylcellulose) (HPC)); 87 % of control (dose: 240.0 mg/kg/injection, schedule: Q01DX005 (ip), vehicle: Klucel (hydroxypropylcellulose) (HPC)).

For `CC(C)(C)N1OC1C(Cl)(Cl)Cl` (stereo not given), the T/C by setting is: under setting [6], 101 % of control; under setting [7], 104 % of control; under setting [8], 104 % of control.

Regarding `COc1cccc2cc(-n3nnc4ccccc43)c(=O)oc12`, the T/C is 94 % of control (dose: 30.0 mg/kg/injection, schedule: Q01DX005 (ip), vehicle: saline with Tween-80); 86 % of control and 91 % of control and 94 % of control under setting [6]; 94 % of control under setting [7]; 86 % of control and 87 % of control under setting [8].

For `CCC[As](=O)(O)CCC`, the T/C by setting is: (dose: 20.0 mg/kg/injection, schedule: Q01DX009 (ip), vehicle: saline) 100 % of control; (dose: 25.0 mg/kg/injection, schedule: Q04DX003 (ip), vehicle: saline) 86 % of control; (dose: 30.0 mg/kg/injection, schedule: Q01DX009 (ip), vehicle: saline) 100 % of control; (dose: 45.0 mg/kg/injection, schedule: Q01DX009 (ip), vehicle: saline) 113 % of control; (dose: 50.0 mg/kg/injection, schedule: Q04DX003 (ip), vehicle: saline) 109 % of control; (dose: 100.0 mg/kg/injection, schedule: Q04DX003 (ip), vehicle: saline) 90 % of control.

For the molecule `O=C(Nc1ccc(Cl)c(Cl)c1)Sc1ccc(Cl)cc1`, the T/C was 113 % of control under setting [3], 119 % of control under setting [4] and 112 % of control under setting [5].

Take `O=C(O)CC(=O)O.[NH-]C1CCCC1[NH-].[Pt+2]`: the T/C by setting is: (dose: 6.25 mg/kg/injection, schedule: Q04DX002 (ip), vehicle: saline) 114 % of control; (dose: 50.0 mg/kg/injection, schedule: Q04DX002 (ip), vehicle: saline with Tween-80) 169 % of control; under setting [1], 185 % of control; under setting [2], 197 % of control.

In the case of `CC(=O)NCCSSSCCNC(C)=O`, the T/C is 115 % of control (dose: 50.0 mg/kg/injection, schedule: Q01DX005 (ip), vehicle: saline) and 115 % of control (dose: 100.0 mg/kg/injection, schedule: Q01DX005 (ip), vehicle: saline).

With `CC(C)OP(=O)(NNP(=O)(OC(C)C)OC(C)C)OC(C)C`, the T/C runs as follows: under setting [9], 104 % of control; under setting [10], 105 % of control; under setting [11], 114 % of control.

For `Cn1ncc2c(N)ncnc21`, the T/C by setting is: under setting [12], 118 % of control; (dose: 100.0 mg/kg/injection, schedule: Q04DX003 (ip), vehicle: saline with Tween-80) 109 % of control; (dose: 200.0 mg/kg/injection, schedule: Q04DX003 (ip), vehicle: saline with Tween-80) 123 % of control.

As for `CC(=O)Nc1cc(NC(C)=O)c(N=O)c(NC(C)=O)n1`, the T/C by setting is: under setting [9], 100 % of control; under setting [10], 99 % of control; under setting [11], 91 % of control.

Turning to `CCN(CC)CCOC(=O)C(OCC(C)C)(c1ccccc1)c1ccccc1`, the T/C by setting is: (dose: 50.0 mg/kg/injection, schedule: Q01DX005 (ip), vehicle: Klucel (hydroxypropylcellulose) (HPC)) 110 % of control; (dose: 100.0 mg/kg/injection, schedule: Q01DX005 (ip), vehicle: Klucel (hydroxypropylcellulose) (HPC)) 108 % of control.

With `NC(/N=C/c1cc(Cl)cc(Cl)c1O)=N\S(=O)(=O)c1ccc(N=Cc2cc(Cl)cc(Cl)c2O)cc1`, the T/C is 98 % of control under setting [12]; 91 % of control (dose: 100.0 mg/kg/injection, schedule: Q01DX009 (ip), vehicle: saline with Tween-80); 98 % of control (dose: 200.0 mg/kg/injection, schedule: Q01DX009 (ip), vehicle: saline with Tween-80).

Source of the values: PubChem BioAssay AID330 (DTP/NCI, 2004).
